Structures can show the parent of a compound that is named as a salt.
System: ANGPTL3
Test: RNA-seq of ANGPTL3 expression in compound-treated primary human hepatocytes
Type: cell-based
Settings: additional compounds (Table 13), linear fold change
Protocol: Human hepatocytes were obtained from two donors from Massachusetts General Hospital, namely MGH54 and MGH63, and one donor from Lonza, namely HUM4111B. Cryopreserved hepatocytes were cultured in plating media for 16 hours, transferred to maintenance media for 4 hours. Cultured on serum-free media for 2 hours, then a compound was added. The hepatocytes were maintained on the serum-free media for 16 hours prior to gene expression analysis. Primary human hepatocytes were stored in the vapor phase of a liquid nitrogen freezer (about −130° C.).
Human hepatocytes cultured as described above were plated in 24-well format, adding 375,000 cells per well in a volume of 500 ul plating medium. Four hours before treatment, cells were washed with PBS and the medium was changed to either: fresh maintenance medium (complete) or modified maintenance medium.
Compound stocks were prepared at 1000× final concentration and added in a 2-step dilution to the medium to reduce risk of a compound precipitating out of solution when added to the cells, and to ensure reasonable pipetting volumes. One at a time, each compound was first diluted 10-fold in warm (about 37° C.) modified maintenance medium (initial dilution=ID), mixed by vortexing, and the ID was diluted 100-fold into the cell culture (e.g. 5.1 ul into 1 well of a 24-well plate containing 0.5 mL medium). The plate was mixed by carefully swirling and after all wells were treated and returned to the incubator overnight. If desired, separate plates/wells were treated with vehicle-only controls and/or positive controls. If using multi-well plates, controls were included on each plate. After about 18 hours, cells were harvested for further analysis, e.g., ChIP-seq, RNA-seq, ATAC-seq, etc.
This protocol is a modified version of the following protocols: MagMAX mirVana Total RNA Isolation Kit User Guide (Applied Biosystems #MAN0011131 Rev B.0), NEBNext Poly(A) mRNA Magnetic Isolation Module (E7490), and NEBNext Ultra Directional RNA Library Prep Kit for Illumina (E7420) (New England Biosystems #E74901).
The MagMAX mirVana kit instructions (the section titled “Isolate RNA from cells” on pages 14-17) were used for isolation of total RNA from cells in culture. Two hundred μl of Lysis Binding Mix was used per well of the multiwell plate containing adherent cells (usually a 24-well plate).
For mRNA isolation and library prep, the NEBNext Poly(A) mRNA Magnetic Isolation Module and Directional Prep kit was used. RNA isolated from cells above was quantified, and prepared in […] of each sample in 50 μl of nuclease-free water. This protocol may be run in microfuge tubes or in a 96-well plate.
All pass filter reads from each sample were mapped against the human genome (assembly GRCh38/GCA_000001405.15 “no alt” analysis set merged with hs38d1/GCA_000786075.2) using two pass mapping via STAR version 2.5.3a (alignment parameters alignIntronMin=20; alignIntronMax=1000000; outFilterMismatchNmax=999; outFilterMismatchNoverLmax=0.05; outFilterType=BySJout; outFilterMultimapNmax=20; alignSJoverhangMin=8; alignSJDBoverhangMin=1; alignMatesGapMax=1000000) (Dobin et al., Bioinformatics (2012) 29(1):15-21). Genomic alignments were converted to transcriptome alignments based on reference transcript annotations from the Human GENCODE Gene Set release 24 (Harrow et al., Genome Res. (2012) 22(9): 1760-1774). Using unique and multimapped transcriptomic alignments, gene-level abundance estimates were computed using RSEM version 1.3.0 (Li and Dewey, BMC Bioinformatics (2011) 12:323) in a strand-aware manner, and including confidence interval sampling calculations, to arrive at posterior mean estimates (PME) of abundances (counts and normalized FPKM—fragments per kilobase of exon per million mapped fragments) from the underlying Bayesian model. Standard QC were applied (read integrity, mapping statistics, library complexity, fragment bias) to remove unsatisfactory samples.

SMILES	ANGPTL3-LINEAR FOLD CHANGE
Cl.Clc1cccc(N2CCNCC2)c1 [1(3-Chlorophenyl)piperazine HCl]	0.4414
CCN1CCN(Cc2ccc(-c3cc4c(N[C@H](C)c5ccccc5)ncnc4[nH]3)cc2)CC1 [AEE788 (NVP-AEE788)]	0.1684
COc1cc(N2CCC(N3CCN(C)CC3)CC2)ccc1Nc1ncnc(Nc2ccccc2S(=O)(=O)C(C)C)n1 [ASP3026]	0.3923
N#Cc1ccc2[nH]c(O)c(-c3ccc(CN4CCOCC4)cn3)c2c1 [AZD1080]	0.2238
COc1cc(C)c(/C=C/C(C)=C/C=C/C(C)=C/C(=O)O)c(C)c1C [Acitretin]	0.4763
Nc1ncn([C@@H]2O[C@H](CO)[C@@H](O)[C@H]2O)c(=O)n1 [Azacitidine]	0.2316
CC[C@@H]1C(=O)N(C)c2cnc(Nc3ccc(C(=O)NC4CCN(C)CC4)cc3OC)nc2N1C1CCCC1 [BI 2536]	0.2045
CC(C)NC(=O)C1CCC(n2c(NC(=O)c3ccc(F)cc3)nc3ccc(CN4CCC(C(C)(C)O)CC4)cc32)CC1 (stereo not drawn) [Belizatinib (TSR-011), Belizatinib]	0.3121
COCCOCOc1cc2ccc(-c3ccc(C(=O)O)cc3)cc2cc1C12CC3CC(CC(C3)C1)C2 [CD 2665]	0.395
NC(=O)N[C@@H](CCC(=O)O)C(=O)O [Carglumic Acid]	0.1975
C[C@@H](NCCCc1cccc(C(F)(F)F)c1)c1cccc2ccccc12 [Cinacalcet HCl]	0.3789
O=C(c1ccc(F)c(F)c1Nc1ccc(I)cc1F)N1CC(O)([C@@H]2CCCCN2)C1 [Cobimetinib (GDC-0973, RG7420), Cobimetinib]	0.2333
CO[C@H]1C[C@@H]2CC[C@@H](C)[C@@](O)(O2)C(=O)C(=O)N2CCCC[C@H]2C(=O)O[C@H]([C@H](C)C[C@@H]2CC[C@@H](OCCO)[C@H](OC)C2)CC(=O)[C@H](C)/C=C(\C)[C@@H](O)[C@@H](OC)C(=O)[C@H](C)C[C@H](C)/C=C/C=C/C=C/1C [Everolimus (RAD001), Everolimus]	0.483
Cc1cnc(Nc2ccc(OCCN3CCCC3)cc2)nc1Nc1cccc(S(=O)(=O)NC(C)(C)C)c1 [Fedratinib (SAR302503, TG101348), Fedratinib]	0.1119
COCCCC/C(=N\OCCN)c1ccc(C(F)(F)F)cc1 [Fluvoxamine maleate]	0.3231
COc1cc2c(Oc3ccc(NC(=O)C4(C(=O)Nc5ccc(F)cc5)CC4)cc3F)ccnc2cc1OCCCN1CCOCC1 [Foretinib (GSK1363089), Foretinib]	0.3368
CCNC(=O)Nc1ccc(-c2nc3c(c(N4CCOC[C@@H]4C)n2)CCN(C2COC2)C3)cc1 [GDC-0349]	0.4506
C[C@@H](Oc1cc(-n2cnc3ccc(CN4CCN(C)CC4)cc32)sc1C(N)=O)c1ccccc1C(F)(F)F [GSK461364]	0.3078
CNc1nc(-c2ccc3c(N)n[nH]c3c2)cc(N2C[C@@H](C(=O)NC3CCCCC3)CC[C@H]2C)n1 [GSK2334470]	0.4538
O=C(O)Cc1cccc(OCCCN(Cc2cccc(C(F)(F)F)c2Cl)CC(c2ccccc2)c2ccccc2)c1 [GW3965]	2.071
c1ccc2c(CCNc3ccc(Nc4ccncc4)cc3)c[nH]c2c1 [JNJ-26854165 (Serdemetan), Serdemetan]	0.1817
Cc1c(OCC(F)(F)F)ccnc1C[S+]([O-])c1nc2ccccc2[nH]1 (stereo not drawn) [Lansoprazole]	0.4763
O=C1CCc2c(Oc3ccc4c(c3)[C@@H]3[C@H](O4)[C@H]3c3nc4ccc(C(F)(F)F)cc4[nH]3)ccnc2N1 [Lifirafenib (BGB-283), Lifirafenib]	0.3585

SMILES	ANGPTL3-LINEAR FOLD CHANGE
O=C(O)c1ccc(Nc2ncc3c(n2)-c2ccc(Cl)cc2C(c2c(F)cccc2F)=NC3)cc1 [MLN8054]	0.2755
FC(F)(F)c1ccc(/C=C/c2nc(COc3ccc(CCCCn4ccnn4)cc3)co2)cc1 [Mubritinib (TAK 165), Mubritinib]	0.3392
COc1cc(N)c(Cl)cc1C(=O)NC1CCNCC1OC (stereo not drawn) [NORCISAPRIDE HYDROCHLORIDE]	0.3763
C=CC(=O)Nc1cccc(Oc2nc(Nc3ccc(N4CCN(C)CC4)cc3)nc3ccsc23)c1 [Olmutinib (HM61713, BI 1482694), Olmutinib]	0.3057
CNC(=O)c1ccc(C)c(-n2c(C)cc(OCc3ccc(F)cc3F)c(Br)c2=O)c1 [PH-797804]	0.2736
NCCC(O)(P(=O)(O)O)P(=O)(O)O [Pamidronate]	0.1528
N=C(N)c1ccc(OCCCCCOc2ccc(C(=N)N)cc2)cc1 [Pentamidine isethionate]	0.1321
CC(=O)c1ccc2c(c1)N(CCCN1CCC(CCO)CC1)c1ccccc1S2 [Piperacetazine]	0.4033
[H]/N=C(\N/C(=N/[H])Nc1ccc(Cl)cc1)NC(C)C [Proguanil]	0.3536
CCC[C@@H]1CC2=CC(=O)CC[C@]2(C)[C@H]2CC[C@@]3(C)[C@@H](CC[C@@]3(O)CCC(=O)[O-])[C@H]12.[K+] [RU 28318]	0.4005
Cc1nc2n(c(=O)c1CCN1CCC(c3noc4cc(F)ccc34)CC1)CCCC2 [Risperidone]	0.3231
C/C=C1\NC(=O)[C@H]2CSSCC/C=C/[C@H](CC(=O)N[C@H](C(C)C)C(=O)N2)OC(=O)[C@H](C(C)C)NC1=O [Romidepsin (FK228, Depsipeptide), Romidepsin]	0.1349
C[C@@H]1CN(Cc2ccc(F)cc2)[C@@H](C)CN1C(=O)c1cc2c(C(=O)C(=O)N(C)C)cn(C)c2cc1Cl [SCIO-469]	0.3711
Cc1cc(C)c(/C=C2\C(=O)Nc3ccccc32)[nH]1 [Semaxinib, Semaxanib]	0.2449
CCC(C)(C)C(=O)O[C@H]1C[C@@H](C)C=C2C=C[C@H](C)[C@H](CC[C@@H]3C[C@@H](O)CC(=O)O3)[C@H]21 [Simvastatin]	0.2588
Cc1c(C(=O)Nc2ccc(N3C[C@@H](C)O[C@@H](C)C3)nc2)cccc1-c1ccc(OC(F)(F)F)cc1 [Sonidegib (Erismodegib, NVP-LDE225), Sonidegib]	0.4897
CC(C)(Sc1cc(C(C)(C)C)c(O)c(C(C)(C)C)c1)Sc1cc(C(C)(C)C)c(OC(=O)CCC(=O)O)c(C(C)(C)C)c1 [Succinobucol]	0.3896
CC(C)(O)CC(=O)NCCn1ccc2ncnc(Nc3ccc(Oc4cccc(C(F)(F)F)c4)c(Cl)c3)c21 [TAK-285]	0.3842
CCc1nc(-c2cccc(C)c2)c(-c2ccnc(NC(=O)c3ccccc3)c2)s1 [TAK-715]	0.4538
CC/C(=C(\c1ccccc1)c1ccc(OCCN(C)C)cc1)c1ccccc1 [Tamoxifen]	0.2606
NC(=O)c1ccc(N(C(N)=O)c2c(F)cccc2F)nc1-c1ccc(F)cc1F [VX-702]	0.4353
O=C(CCCCCCC(=O)Nc1ccccc1)NO [Vorinostat (SAHA, MK0683), Vorinostat]	0.3511

Source: US20210161997A1, “TREATING DISEASES VIA TARGETED MODULATION OF GENE SIGNALING NETWORKS” (Camp4 Therapeutics Corporation, priority 2018, published 2021)
